In one assay the test system is Staphylococcus aureus. As to the kind of experiment: In vitro antibacterial activity (Table 5), MIC. The format is cell-based.
The next assay deals with Streptococcus D. Description: In vitro antibacterial activity (Table 5), MIC. The format is cell-based.
The next assay deals with Haemophilus influenzae. Description: In vitro antibacterial activity (Table 5), MIC. The format is cell-based.
For the next assay, the system named is Streptococcus pneumoniae. Description: In vitro antibacterial activity (Table 5), MIC. The format is cell-based, S. pneumoniae. The following applies: strain PARK.
Assay [1] concerns Staphylococcus epidermidis. Description: In vitro antibacterial activity (Table 5), MIC. The format is cell-based, S. epidermidis.
The next assay has as its system Streptococcus A. Description: In vitro antibacterial activity (Table 5), MIC. The format is cell-based. The following applies: strain C203.
For assay [2], the system named is culture A84575. As to the kind of experiment: Resistance of culture A84575 to antibiotics (antibiotic sensitivity discs, ISP No. 2 agar). The format is cell-based, Streptosporangium carneum. The following applies: disc. As to the method: Resistance to antibiotics was measured by padding antibiotic sensitivity discs (Difco) onto the surface of seeded ISP No. 2 agar plates. Resistance was scored as (+) when no zone of inhibition was observed, and as (-) when a zone of inhibition was observed.

In assay [3] the test system is culture A84575. The description is as above. The format is cell-based, Streptosporangium carneum. Particulars: 50 μg/mL.

Converted amounts (≈) assume the structure as drawn. Like-named read-outs stand apart in the source and are kept apart here. Where a SMILES comes first, the peptide text is derived from it. Bridges are numbered along the chain shown (N, C = ends). [ ]: non-standard residue; d: D form. The star is where a group is joined. Ileψ(thiazoline)Cys = CC[C@H](C)[C@H](N)C1=N[C@H](C(=O)*)CS1; dOrn = NCCC[C@@H](N)C(=O)O

As for `CO/N=C(\C(=O)N[C@@H]1C(=O)N2C(C(=O)O)=C(COC(C)=O)CS[C@H]12)c1csc(N)n1` [Standard], the MIC is 16 µg/mL (≈ 35.1 µM) in the assay on Staphylococcus aureus; 4 µg/mL (≈ 8.78 µM) in the assay on Staphylococcus aureus (strain U41, read-out: MIC); 2 µg/mL (≈ 4.39 µM) with Staphylococcus aureus (strain X1.1, read-out: MIC); 128 µg/mL (≈ 281 µM) with Staphylococcus aureus (strain X400, read-out: MIC); 128 µg/mL (≈ 281 µM) with Streptococcus D (strain 2041); > 128 µg/mL against Streptococcus D (strain X66). The MIC was 0.015 µg/mL (≈ 0.0329 µM) in the assay with Haemophilus influenzae (Haemophilus influenzae, strain C.L., sensitive strain, read-out: MIC); “.015 µg/mL” in the assay on Haemophilus influenzae (strain 76, resistant strain); 0.015 µg/mL (≈ 0.0329 µM) against Streptococcus pneumoniae; 2 µg/mL (≈ 4.39 µM) in assay [1] (strain 222); 8 µg/mL (≈ 17.6 µM) in assay [1] (strain 270); 0.015 µg/mL (≈ 0.0329 µM) against Streptococcus A.
As for `CC[C@H](C)[C@H](N)C1=N[C@H](C(=O)N[C@@H](CC(C)C)C(=O)N[C@H](CCC(=O)O)C(=O)N[C@H](C(=O)N[C@H]2CCCCNC(=O)[C@H](CC(N)=O)NC(=O)[C@@H](CC(=O)O)NC(=O)[C@H](Cc3cnc[nH]3)NC(=O)[C@@H](Cc3ccccc3)NC(=O)[C@H]([C@@H](C)CC)NC(=O)[C@@H](CCCN)NC2=O)[C@@H](C)CC)CS1` [bacitracin] ({Ileψ(thiazoline)Cys}-L[dE]IK[dOrn]I[dF]H[dD]N; lactam 4-C), in the assay with culture A84575 [2] (10 units), the Resistance to antibiotics result is reported as “resistant”.
Take `CCC[C@@H]1C[C@@H](C(=O)N[C@@H]([C@H]2O[C@H](SC)[C@H](O)[C@@H](O)[C@H]2O)[C@@H](C)O)N(C)C1` [lincomycin]: in the assay on culture A84575 [2] (2 μm), the Resistance to antibiotics entry is on record as “resistant”.
As for `CO[C@H]1C[C@H](O[C@H]2[C@H](C)[C@@H](O[C@@H]3O[C@H](C)C[C@H](N(C)C)[C@H]3O)[C@@H](C)C[C@@]3(CO3)C(=O)[C@H](C)[C@@H](O)[C@@H](C)[C@@H](C)OC(=O)[C@@H]2C)O[C@@H](C)[C@@H]1O` [oleandomycin], the Resistance to antibiotics result in the assay with culture A84575 [2] (15 μm) was “sensitive”.
For `CC1(C)S[C@@H]2[C@H](NC(=O)Cc3ccccc3)C(=O)N2[C@H]1C(=O)O` [penicillin G], the Resistance to antibiotics entry with culture A84575 [2] (10 units) is “resistant”.
As for `CO[C@H]1/C=C/O[C@@]2(C)Oc3c(C)c(O)c4c(O)c(c(/C=N/N5CCN(C)CC5)c(O)c4c3C2=O)NC(=O)/C(C)=C\C=C\[C@H](C)[C@H](O)[C@@H](C)[C@@H](O)[C@@H](C)[C@H](OC(C)=O)[C@@H]1C` [rifampin], the Resistance to antibiotics entry in the assay with culture A84575 [2] (5 μm) is given as “sensitive”.
Regarding lysozyme, in the assay with culture A84575 [3], the Sensitivity to lysozyme entry is given as “sensitive”.
